The values that follow are results of earlier work, collected in patent US20250281408A1, “AMORPHOUS SOLID DISPERSIONS AND PHARMACEUTICAL COMPOSITIONS COMPRISING THE SAME” (Shenzhen Pharmacin Co., Ltd., priority 2022, published 2025).

Read-outs that look alike come from different tables or passages of the source.

The conditions of series [1]: relative to fasted conditions, healthy subjects.
The conditions of series [2]: fed conditions.
The conditions of series [3]: high-fat or low-fat meal.

As to `COc1cc2nccc(Oc3ccc(NC(=O)C4(C(=O)Nc5ccc(F)cc5)CC4)cc3)c2cc1OC` [Cabozantinib], the “solubility in aqueous solution / aqueous media” value was “practically insoluble”. Moreover, in series [1], the “increase of AUC by a high-fat meal” value is reported as 57% and the “increase of Cmax by a high-fat meal” value was 41%.

Regarding `CCc1cc2c(cc1N1CCC(N3CCOCC3)CC1)C(C)(C)c1[nH]c3cc(C#N)ccc3c1C2=O` [alectinib], the “solubility in aqueous solution / aqueous media” value is on record as “very hard to dissolve”. In addition, in series [2], the absolute bioavailability was 37%.

As to `CC1(C)CCC(CN2CCN(c3ccc(C(=O)NS(=O)(=O)c4ccc(NCC5CCOCC5)c([N+](=O)[O-])c4)c(Oc4cnc5[nH]ccc5c4)c3)CC2)=C(c2ccc(Cl)cc2)C1` [Venetoclax], the solubility in water result is “poor water solubility”.

In the case of `O=C1[C@@H]2[C@H]3CC[C@H](C3)[C@@H]2C(=O)N1C[C@@H]1CCCC[C@H]1CN1CCN(c2nsc3ccccc23)CC1` [lurasidone], the solubility in water result is recorded as “very slightly soluble”.

In the case of `N#Cc1ccc2[nH]cc(CCCCN3CCN(c4ccc5oc(C(N)=O)cc5c4)CC3)c2c1` [vilazodone], the solubility in water result is “very slightly soluble”.

Take `Cc1ccc(Nc2nccc(N(C)c3ccc4c(C)n(C)nc4c3)n2)cc1S(N)(=O)=O` [pazopanib]: in series [3], the “increase in AUC with food” value was “approximately 2 fold” and the “increase in Cmax with food” value is recorded as “approximately 2 fold”. In addition, the “solubility in aqueous media” value (above pH 4) is given as “practically insoluble”. In addition, where the note is “pH 1”, the “solubility in aqueous media” value is “very slightly soluble”.

`CC(=O)O[C@H]1CC[C@@]2(C)C(=CC[C@@H]3[C@@H]2CC[C@]2(C)C(c4cccnc4)=CC[C@@H]32)C1` [Abiraterone Acetate]: the solubility in water result is “very poorly water soluble”.
